Here are results for four molecules from patent US5773029A, “High solubility multicomponent inclusion complexes consisting of an acidic drug, a cyclodextrin and a base” (Chiesi Farmaceutici S.p.A., priority 1994, dated 1998).

Series [1] is described as follows: Dissolution: glibenclamide concentration versus time at room temperature in buffer (Table 3). Format: physicochemical.
The next series is described as follows: physchem. The source says:
Equilibrium solubility, at room temperature,
at different pH values, of Glibenclamide (G), its
sodium salt (G--Na), and a physical mixture thereof with
βCD (G/βCD) in a 1:1, 1:2, 1:3.
Equilibrium solubility (eq.) and instant solubility
at various times, at room temperature, at different pH values, […]

The conditions of series [2]: cited from earlier work.

≈ marks a conversion by molar mass, not a printed value.

For `COc1ccc(Cl)cc1C(=O)NCCc1ccc(S(=O)(=O)NC(=O)NC2CCCCC2)cc1` [G, Glibenclamide], the “Glibenclamide concentration by dissolution” value in series [1] (pH 1.4, 05 min) is less than 0.01 mg/mL; in series [1] (pH 1.4, 15 min), less than 0.01 mg/mL; in series [1] (pH 1.4, 30 min) it was less than 0.01 mg/mL; in series [1] (pH 1.4, 40 min), less than 0.01 mg/mL; in series [1] (pH 1.4, 50 min), less than 0.01 mg/mL; in series [1] (pH 5.0, 05 min), less than 0.01 mg/mL. Besides, the “Glibenclamide concentration by dissolution” value in series [1] (pH 5.0, 10 min) is less than 0.01 mg/mL; in series [1] (pH 5.0, 20 min), less than 0.01 mg/mL; in series [1] (pH 5.0, 40 min), less than 0.01 mg/mL; in series [1] (pH 5.0, 50 min), less than 0.01 mg/mL. In addition, the thermodynamic solubility in the series “physchem” (pH 4) was determined as 4 µg/mL (≈ 8.1 µM); in “physchem” (pH 7.39) it was 18.8 µg/mL (≈ 38.1 µM); in the series “physchem” (pH 7.5) it was 20 µg/mL (≈ 40.5 µM); in the series “physchem” (pH 8.89), 299 µg/mL (≈ 605 µM); in “physchem” (pH 9) it was 600 µg/mL (≈ 1210 µM); in “physchem” (pH 9.53), 768 µg/mL (≈ 1550 µM). In addition, in series [2], the pKa was 6.8.
The molecule `COc1ccc(Cl)cc1C(=O)NCCc1ccc(S(=O)(=O)NC(=O)NC2CCCCC2)cc1` [G--Na] registered a thermodynamic solubility in the series “physchem” (pH 9.3) of 7000 µg/mL (≈ 14200 µM).
Regarding `CN1C(C(=O)Nc2ccccn2)=C(O)c2ccccc2S1(=O)=O` [P, Piroxicam], the solubility (thermodynamic) in the series “physchem” (pH 1.2) stood at 108 µg/mL (≈ 326 µM); in the series “physchem” (pH 6), 76 µg/mL (≈ 229 µM); in “physchem” (pH 7), 570 µg/mL (≈ 1720 µM); in the series “physchem” (pH 7.5), 1030 µg/mL (≈ 3110 µM).
In “physchem”, `NS(=O)(=O)c1cc2c(cc1Cl)N=CNS2(=O)=O` [Chlorothiazide] had a thermodynamic solubility of 400 to 700 µg/mL (≈ 1350 to 2370 µM).
